ChEMBL document CHEMBL1140802 (Bioorg Med Chem Lett, 2008)

Assay: Blockade of CNGA1/CNGB1 expressed in Xenopus oocyte by electrophysiological method

SMILES | Kd [µM]
CCCCNc1ccc(C(=O)OCCCN(C)C)cc1 | 5
CCCCNc1ccc(C(=O)OCCCCN(C)C)cc1 | 7.1
CN(C)CCOC(=O)c1ccc(NC2CCCCC2)cc1 | 17
CN(C)CCOC(=O)c1ccc(NCc2ccccc2)cc1 | 16
CC(C)CNc1ccc(C(=O)OCCN(C)C)cc1 | 20
CCCCNc1ccc(C(=O)OCCCCN(CCCC)CCCC)cc1 | 1.3
CCCCNc1ccc(C(=O)OCCN(CC)CC)cc1 [P-BUTYLAMINOBENZOYLDIETHYLAMINOETHYL] | 8.5

Now from value to molecule:

Kd [µM] | SMILES
1.6 | CCCCCCCCNc1ccc(C(=O)OCC[N+](C)(C)CC)cc1
1.1 | CCCCNc1ccc(C(=O)OCCN(CCCC)CCCC)cc1
1.3 | CCCCCCCCNc1ccc(C(=O)OCCN(C)C)cc1
5.6 | CCCCNc1ccc(C(=O)OCCCN(CC)CC)cc1
1.3 | CCCCNc1ccc(C(=O)OCCCN(CCCC)CCCC)cc1
3.8 | CCCCCCNc1ccc(C(=O)OCCN(C)C)cc1
